Read-outs that look alike come from different tables or passages of the source.
Assay: pharmacokinetics of 16 ginsenosides in rat plasma after oral administration of RGS
Type: in vivo
Conditions: for Cmax / MRT / half-life / Tmax / C Max / T1/2 / T Max: SD, rat, po, 100 mg/kg
Method: The SD rats were randomly allocated into two groups, i.e., normal group and SA-treated group.
Blood samples were collected from the postocular vein at 0.083, 0.25, 0.5, 1, 2, 3, 4, 6, 8, 12 and 24 h after SA injection. Blood sample immediately was centrifuged at 18,000 rpm for 10 min. Plasma was withdrawn (0.15 mL) and diluted with 0.3 mL of acetonitrile and 20 µL of the IS (6 µg/mL). After 30 min, the mixture was clarified by centrifugation at 18,000 rpm for 10 min at 4 °C. The supernatant was dried under a stream of N2, and the residue was dissolved in 0.1 mL of methanol and stored at −20 °C for further analysis.
The UPLC-MS/MS system (Waters Xeve TQ, Waters, Cork, Ireland) with a column C18 (ACQUITY, 1.7 μm, 2.1 × 50 mm, Waters, Cork, Ireland) were adopted at 35 °C. Water (A) and acetonitrile (B) were used as mobile phases at a flow rate of 0.4 mL/min. The treatment of elution was performed according to following pattern: 10% B for 0–5.0 min; 10→15% B for 5.0–8.0 min; 15→25% B for 8.0–12.0 min; 25→40% for 12.0–20.0 min; 40→50% B for 20.0–25.0 min; 50→65% B for 25.0–30.0 min. With regard to mass detection, the negative mode of electrospray ionization source was adopted. The optimized parameters of multiple reactions monitoring (MRM) system including collision energy, Q1 Pre Bias, Q3 Pre Bias, collision energy and MRM transition of the 16 ginsenosides are shown in Table 1.
Based on a non-compartmental method, WinNonlin software (Phoenix, version 6.1) was employed to calculate the pharmacokinetic parameters. The statistical difference between groups was analyzed by One-Way ANOVA analysis using SPSS Version 17.0. (SPSS Inc., Chicago, IL, USA). The difference between groups was regarded significant when p < 0.05. We first normalized the pharmacokinetic data and then visualized them based on principal component analysis (PCA).

[1] = plasma, model (scopolamine 1 mg/kg i.p.-treated) rats, oral RGS single dose 100 mg/kg, plasma, mean ± S.D., n = 5, read-out: C Max
[2] = plasma, model (scopolamine 1 mg/kg i.p.-treated) rats, oral RGS single dose 100 mg/kg, plasma, mean ± S.D., n = 5, read-out: MRT
[3] = plasma, model (scopolamine 1 mg/kg i.p.-treated) rats, oral RGS single dose 100 mg/kg, plasma, mean ± S.D., n = 5, read-out: T1/2 (converted)
[4] = plasma, model (scopolamine 1 mg/kg i.p.-treated) rats, oral RGS single dose 100 mg/kg, plasma, mean ± S.D., n = 5, read-out: T Max
[5] = plasma, normal rats, oral RGS single dose 100 mg/kg, plasma, mean ± S.D., n = 5, read-out: C Max
[6] = plasma, normal rats, oral RGS single dose 100 mg/kg, plasma, mean ± S.D., n = 5, read-out: MRT
[7] = plasma, normal rats, oral RGS single dose 100 mg/kg, plasma, mean ± S.D., n = 5, read-out: T1/2 (converted)
[8] = plasma, normal rats, oral RGS single dose 100 mg/kg, plasma, mean ± S.D., n = 5, read-out: T Max
[9] = model (scopolamine 1 mg/kg i.p.-treated) rats, oral RGS single dose 100 mg/kg, plasma, mean ± S.D., n = 5
[10] = normal rats, oral RGS single dose 100 mg/kg, plasma, mean ± S.D., n = 5
[11] = in vivo, model (scopolamine 1 mg/kg i.p.-treated) rats, oral RGS single dose 100 mg/kg, plasma, mean ± S.D., n = 5, read-out: C Max
[12] = in vivo, model (scopolamine 1 mg/kg i.p.-treated) rats, oral RGS single dose 100 mg/kg, plasma, mean ± S.D., n = 5, read-out: MRT
[13] = in vivo, model (scopolamine 1 mg/kg i.p.-treated) rats, oral RGS single dose 100 mg/kg, plasma, mean ± S.D., n = 5, read-out: T1/2 (converted)
[14] = in vivo, model (scopolamine 1 mg/kg i.p.-treated) rats, oral RGS single dose 100 mg/kg, plasma, mean ± S.D., n = 5, read-out: T Max
[15] = in vivo, normal rats, oral RGS single dose 100 mg/kg, plasma, mean ± S.D., n = 5, read-out: C Max
[16] = in vivo, normal rats, oral RGS single dose 100 mg/kg, plasma, mean ± S.D., n = 5, read-out: MRT
[17] = in vivo, normal rats, oral RGS single dose 100 mg/kg, plasma, mean ± S.D., n = 5, read-out: T1/2 (converted)
[18] = in vivo, normal rats, oral RGS single dose 100 mg/kg, plasma, mean ± S.D., n = 5, read-out: T Max

| Compound | Cmax [1] [ng/g] | MRT [2] [h] | half-life [3] [h] | Tmax [4] [h] | Cmax [5] [ng/g] | MRT [6] [h] | half-life [7] [h] | Tmax [8] [h] | AUC 0-t [9] [ng·h/g] | AUC 0-t [10] [ng·h/g] | C Max (in vivo) [ng/g] | MRT (in vivo) [h] | T1/2 (in vivo) [h] | Cmax (in vivo, C Max) [ng/g] | MRT (in vivo, MRT) [h] | half-life (in vivo, T1/2) [h] | Tmax (in vivo, T Max) [h] | other results |
| --- | --- | --- | --- | --- | --- | --- | --- | --- | --- | --- | --- | --- | --- | --- | --- | --- | --- | --- |
| CC(C)=CCCC(C)(OC1OC(COC2OCC(O)C(O)C2O)C(O)C(O)C1O)C1CCC2(C)C1C(O)CC1C3(C)CCC(OC4OC(CO)C(O)C(O)C4OC4OC(CO)C(O)C(O)C4O)C(C)(C)C3CCC12C (stereo not shown) [Rb2] | 17.2 ± 2.1 | 7.9 ± 1.2 | 6.9 ± 1.2 | 1.5 ± 0.2 | 18.5 ± 2.5 | 8.6 ± 2.1 | 6.5 ± 1.5 | 1.5 ± 0.2 | 90.3 ± 8.2 | 89.6 ± 9.3 | – | – | – | – | – | – | – | – |
| CC(C)=CCCC(C)(OC1OC(COC2OC(CO)C(O)C2O)C(O)C(O)C1O)C1CCC2(C)C1C(O)CC1C3(C)CCC(OC4OC(CO)C(O)C(O)C4OC4OC(CO)C(O)C(O)C4O)C(C)(C)C3CCC12C (stereo not shown) [Rc] | 21 ± 4.8 | 8.9 ± 2.2 | 7.9 ± 3.1 | 1.5 ± 0.5 | 19.1 ± 2.9 | 9.6 ± 1.5 | 8.9 ± 3.2 | 1.5 ± 3.2 | 109.8 ± 10.2 | 102.3 ± 20.2 | – | – | – | – | – | – | – | – |
| CC(C)=CCCC(C)(OC1OC(CO)C(O)C(O)C1O)C1CCC2(C)C1C(O)CC1C3(C)CCC(O)C(C)(C)C3C(OC3OC(CO)C(O)C(O)C3OC3OC(C)C(O)C(O)C3O)CC12C (stereo not shown) [Re] | 24.9 ± 6.9 | 8.6 ± 1.1 | 11.3 ± 2.9 | 0.5 ± 0.1 | 25.6 ± 2.6 | 9.6 ± 1.2 | 12.3 ± 2.6 | 0.5 ± 0.4 | 298.6 ± 21.2 | 278.3 ± 9.1 | – | – | – | – | – | – | – | – |
| CC(C)=CCCC(C)(O)C1CCC2(C)C1C(O)CC1C3(C)CCC(O)C(C)(C)C3C(OC3OC(CO)C(O)C(O)C3OC3OC(CO)C(O)C(O)C3O)CC12C (stereo not shown) [Rf] | – | – | – | – | – | – | – | – | – | – | 18.8 ± 2.6 | 7.4 ± 1.3 | 7.5 ± 1.5 | 17.6 ± 5.9 | 6.5 ± 1.2 | 6.6 ± 1.2 | 2 ± 0.6 | – |
| CC(C)=CCCC(C)(O)C1CCC2(C)C1C(O)CC1C3(C)CCC(OC4OC(CO)C(O)C(O)C4OC4OC(CO)C(O)C(O)C4O)C(C)(C)C3CCC12C (stereo not shown) [Rg3] | – | – | – | – | – | – | – | – | – | – | 32.3 ± 4.6 | 22.5 ± 2.1 | 19.8 ± 1.5 | 29.6 ± 5.9 | 24.3 ± 1.2 | 21.3 ± 2.2 | – | – |
| CC(C)=CCC=C(C)C1CCC2(C)C1C(O)CC1C3(C)CCC(OC4OC(CO)C(O)C(O)C4OC4OC(CO)C(O)C(O)C4O)C(C)(C)C3CCC12C (stereo not shown) [Rg5] | 37.3 ± 2.8 | 25.6 ± 2.6 | 27.3 ± 3.6 | 8 ± 1.6 | 34.4 ± 2.6 | 22.2 ± 1.4 | 17.1 ± 2.5 | 4 ± 1.8 | 569.8 ± 10.2 | 415.6 ± 20.1 | – | – | – | – | – | – | – | – |
| CC(C)=CCCC(C)(O)C1CCC2(C)C1C(O)CC1C3(C)CCC(O)C(C)(C)C3C(OC3OC(CO)C(O)C(O)C3O)CC12C (stereo not shown) [Rh1] | – | – | – | – | – | – | – | – | 278.6 ± 12.8 | 215.5 ± 12.1 | – | – | – | – | – | – | – | Cmax [11]: 46.9 ± 7.8 ng/g; MRT [12]: 11.2 ± 2 h; half-life [13]: 8.9 ± 2.1 h; Tmax [14]: 1.5 ± 0.3 h; Cmax [15]: 41.2 ± 4.6 ng/g; MRT [16]: 9.6 ± 2.1 h; half-life [17]: 9.8 ± 2.5 h; Tmax [18]: 1 ± 0.5 h |
| CC(C)=CCCC(C)(O)C1CCC2(C)C1C(O)CC1C3(C)CCC(OC4OC(CO)C(O)C(O)C4O)C(C)(C)C3CCC12C (stereo not shown) [Rh2] | – | – | – | – | – | – | – | – | 369.8 ± 8.0 | 356.8 ± 12.8 | – | – | – | – | – | – | – | Cmax [11]: 30.2 ± 4.8 ng/g; MRT [12]: 11.8 ± 2 h; half-life [13]: 7.6 ± 2.1 h; Tmax [14]: 2 ± 0.3 h; Cmax [15]: 26.9 ± 2.6 ng/g; MRT [16]: 12.3 ± 2.1 h; half-life [17]: 9.8 ± 2.5 h; Tmax [18]: 2 ± 0.5 h |
| CC(C)=CCC=C(C)C1CCC2(C)C1C(O)CC1C3(C)CCC(OC4OC(CO)C(O)C(O)C4O)C(C)(C)C3CCC12C (stereo not shown) [Rh3] | – | – | – | – | – | – | – | – | – | – | 37.6 ± 4.8 | 19.8 ± 2.8 | 13.6 ± 3.1 | 24.3 ± 3.9 | 15.6 ± 3.5 | 12.6 ± 3.2 | 14.4 ± 1.2 | T Max (in vivo): 10.2 ± 1.5 h |
| CC(C)=CCC=C(C)C1CCC2(C)C1C(O)CC1C3(C)CCC(O)C(C)(C)C3C(OC3OC(CO)C(O)C(O)C3O)CC12C (stereo not shown) [Rh4] | – | – | – | – | – | – | – | – | – | – | 38.7 ± 4.8 | 12.3 ± 2.0 | 9.9 ± 2.1 | 35.6 ± 3.6 | 11.2 ± 2.1 | 8.8 ± 1.5 | 4 ± 0.5 | – |
| C=C(CCC=C(C)C)C1CCC2(C)C1C(O)CC1C3(C)CCC(OC4OC(CO)C(O)C(O)C4OC4OC(CO)C(O)C(O)C4O)C(C)(C)C3CCC12C (stereo not shown) [Rk1] | 50.1 ± 3.7 | 26.8 ± 2.5 | 29.3 ± 2.1 | 6 ± 0.8 | 32.1 ± 5.9 | 21.3 ± 1.8 | 18.1 ± 9.8 | 6 ± 0.9 | 736.8 ± 17.7 | 556.8 ± 13.4 | – | – | – | – | – | – | – | – |
| C=C(CCC=C(C)C)C1CCC2(C)C1C(O)CC1C3(C)CCC(O)C(C)(C)C3C(OC3OC(CO)C(O)C(O)C3O)CC12C (stereo not shown) [Rk3] | – | – | – | – | – | – | – | – | – | – | 16.6 ± 2.8 | 8.9 ± 1.8 | 6.9 ± 2.1 | 14.2 ± 3.9 | 9.6 ± 1.5 | 6.5 ± 0.9 | 1 ± 0.2 | T Max (in vivo): 1.5 ± 0.5 h |

From publication PMC6600263, “Neuroprotective Effects of Red Ginseng Saponins in Scopolamine-Treated Rats and Activity Screening Based on Pharmacokinetics” (Molecules, 2019)
